# Data taken from US8026367B2, “(R)-arylalkylamino derivatives and pharmaceutical compositions containing them” (Dompe PHA.R.MA S.p.A., priority 2005, dated 2011).
# Counter-ions that a name gives are not always drawn.
# Test system: not given
# Test: not given
# Conditions: not given
row,melting point [°C],SMILES
1,105 to 106,"C[C@@H](NS(=O)(=O)c1cccs1)c1cccc(C(=O)c2ccco2)c1 [Compound 5, N-[(1R)-1-[3-(2-furoyl)phenyl]ethyl}thiophene-2-sulfonamide]"
2,90 to 93,"C[C@@H](NC(=O)C1CCC1)c1cccc(C(=O)c2ccccc2)c1 [Compound 18, N-[(1R)-1-(3-benzoylphenyl)ethyl]cyclobutanecarboxamide]"
3,120 to 122,"C[C@@H](NC(=O)c1cccnc1)c1ccc(OS(=O)(=O)C(F)(F)F)cc1 (as salt: methanesulfonate) [Compound 15, 4-{[(1R)-1-(pyridine-3-ylcarbonyl)amino]ethyl]}phenyl trifluoromethanesulfonate]"

# Test system: C5a induced PMN migration
# Test: Inhibition of C5a induced chemotaxis of human PMNs (microchamber assay)
# Assay type: cell-based
# Conditions: compound concentration range between 10^−7 and 10^−8 M, C5a 10^−9 M, 60 min at 37° C.
# Method: The compounds of the invention of formula (I) were evaluated in vitro for their ability to inhibit chemotaxis of polymorphonucleate leukocytes (hereinafter referred to as PMNs) and monocytes induced by the fractions of the complement C5a and C5a-desArg. For this purpose, to isolate the PMNs from heparinized human blood, taken from healthy adult volunteers, mononucleates were removed by means of sedimentation on dextran (according to the procedure disclosed by W. J. Ming et al., J. Immunol., 138, 1469, 1987) and red blood cells by a hypotonic solution. The cell vitality was calculated by exclusion with Trypan blue, whilst the ratio of the circulating polymorphonucleates was estimated on the cytocentrifugate after staining with Diff Quick.
# Human recombinant fractions C5a and C5a-desArg (Sigma) were used as stimulating agents in the chemotaxis experiments, giving practically identical results.
# The lyophilized C5a was dissolved in a volume of HBSS containing 0.2% bovin serum albumin BSA so thus to obtain a stock solution having a concentration of 10^−5 M to be diluted in HBSS to a concentration of 10^−9 M, for the chemotaxis assays.
# In the chemotaxis experiments, the PMNs were incubated with the compounds of the invention of formula (I) for 15′ at 37° C. in an atmosphere containing 5% CO2.
# The chemotactic activity of the C5a was evaluated on human circulating polymorphonucleates (PMNs) resuspended in HBSS at a concentration of 1.5×10^6 PMNs per mL.
# During the chemotaxis assay (according to W. Falket et al., J. Immunol. Methods, 33, 239, 1980) PVP-free filters with a porosity of 5 μm and microchambers suitable for replication were used.
# The compounds of the invention in formula (I) were evaluated at a concentration ranging between 10^−7 and 10^−10 M; for this purpose they were added, at the same concentration, both to the lower pores and the upper pores of the microchamber. The wells in the lower part contain the solution of C5a or the simple carrier, those in the upper part contain the suspension of PMNs.
# Inhibition of C5a-induced chemotactic activity by the individual compounds of the invention of formula (I) was evaluated by incubating the microchamber for the chemotaxis for 60 min at 37° C. in an atmosphere containing 5% CO2.
# By way of example, the inhibition data of the chemotaxis of PMN (concentration range between 10^−7 and 10^−8 M) of some representative compounds of the invention are reported in Table 1.
row,SMILES,% inhibition C5a induced PMN migration [%]
1,"C[C@@H](NS(=O)(=O)c1ccccc1)c1cccc(C(=O)c2ccccc2)c1 [Compound 2, N-[(1R)-1-(3-benzoylphenyl)ethyl]benzenesulfonamide]",59 ± 10
2,"C[C@@H](NS(=O)(=O)c1cccs1)c1cccc(C(=O)c2ccco2)c1 [Compound 5, N-[(1R)-1-[3-(2-furoyl)phenyl]ethyl}thiophene-2-sulfonamide]",60 ± 8
3,"C[C@@H](NS(=O)(=O)c1cccnc1)c1ccc(OS(=O)(=O)C(F)(F)F)cc1 [Compound 3, 4-{(1R)-1-[(pyridine-3-ylsulfonyl)amino]ethyl}phenyl trifluoromethanesulfonate]",47 ± 7
4,"C[C@@H](NS(C)(=O)=O)c1cccc(C(=O)c2ccccc2)c1 [Compound 4, N-[(1R)-1-(3-benzoylphenyl)ethyl]methanesulfonamide]",48 ± 8
5,"C[C@@H](NC(=O)c1ccco1)c1cccc(C(=O)c2ccccc2)c1 [Compound 17, N-[(1R)-1-(3-benzoylphenyl)ethyl]-2-furamide]",63 ± 10
6,"COC(=O)c1ccc(S(=O)(=O)N[C@H](C)c2cccc(C(=O)c3ccccc3)c2)o1 [Compound 10, methyl 5-({[(1R)-1-(3-benzoylphenyl)ethyl]amino}sulfonyl)-2-furoate]",72 ± 6
7,"C[C@@H](NS(=O)(=O)c1cccs1)c1cccc(C(=O)c2ccccc2)c1 [Compound 8, N-[(1R)-1-(3-benzoylphenyl]ethyl}thiophene-2-sulfonamide]",55 ± 14
8,"C[C@@H](NC(=O)CCCN1CCCCC1)c1ccc(OS(=O)(=O)C(F)(F)F)cc1 [Compound 19, N-[(1R)-1-(4-trifluoromethanesulfonyloxy)phenylethyl]-4-piperidin-1-ylbutanamide]",54 ± 17
9,"C[C@@H](NS(C)(=O)=O)c1ccc(C(C)(C)S(=O)(=O)c2ccccc2)cc1 [Compound 13, N-((1R)-1-{4-[1-methyl-1-(phenylsulfonyl)ethyl]phenyl}ethyl)methanesulfonamide]",64 ± 8
10,"C[C@@H](NS(C)(=O)=O)c1cccc(C(=O)c2ccco2)c1 [Compound 6, N-[(1R)-1-[3-(2-furoyl)phenyl]ethyl}methanesulfonamide]",52 ± 7
11,"C[C@@H](NC(=O)c1cccnc1)c1ccc(OS(=O)(=O)C(F)(F)F)cc1 [Compound 15, 4-{[(1R)-1-(pyridine-3-ylcarbonyl)amino]ethyl]}phenyl trifluoromethanesulfonate]",46 ± 6
12,"CC(C)[C@@H](NS(C)(=O)=O)c1ccc(OS(=O)(=O)C(F)(F)F)cc1 [Compound 12, 4-{(1R)-2-methyl-1-[(methylsulfonyl)amino]propyl}phenyl trifluoromethanesulfonate]",40 ± 5
13,"C[C@@H](NS(=O)(=O)c1cccs1)c1ccc(OS(=O)(=O)C(F)(F)F)cc1 [Compound 7, 4-{(1R)-1-[(thien-2-ylsulfonyl)amino]ethyl}phenyl trifluoromethanesulfonate]",41 ± 8
14,C[C@@H](Nc1nc(C(F)(F)F)cs1)c1cccc(C(=O)c2ccccc2)c1 [Compound 21],42 ± 5
15,"C[C@@H](NC(=O)C1CCC1)c1cccc(C(=O)c2ccccc2)c1 [Compound 18, N-[(1R)-1-(3-benzoylphenyl)ethyl]cyclobutanecarboxamide]",57 ± 4
16,"C[C@@H](NC(=O)c1ccccc1)c1cccc(C(=O)c2ccccc2)c1 [Compound 16, N-[(1R)-1-(3-benzoylphenyl)ethyl]benzamide]",49 ± 5
17,"C[C@@H](NS(=O)(=O)c1ccc(C(=O)O)o1)c1cccc(C(=O)c2ccccc2)c1 [Compound 11, 5-({[(1R)-1-(3-benzoylphenyl)ethyl]amino}sulfonyl)-2-furoic acid]",40 ± 4
18,"C[C@@H](NC(=O)CCCN1CCCC1)c1ccc(OS(=O)(=O)C(F)(F)F)cc1 [Compound 20, 4-{(1R)-1-[(4-pyrrolidin-1-ylbutanoyl)amino]ethyl]}phenyl trifluoromethanesulfonate]",47 ± 1
19,"CC(C)C(=O)N[C@H](C)c1ccc(OS(=O)(=O)C(F)(F)F)cc1 [Compound 14, 4-[(1R)-1-(isobutyrylamino)ethyl]phenyl trifluoromethanesulfonate]",60 ± 8
20,"C[C@@H](NS(=O)(=O)c1ccccc1)c1ccc(OS(=O)(=O)C(F)(F)F)cc1 [Compound 1, 4-{(1R)-1-[(phenylsulfonyl)amino]ethyl}phenyl trifluoromethanesulfonate]",50 ± 1
